The text below walks through data of the CombiSolv-Exp solvation set (Vermeire and Green 2021).

The series is described as follows: solvent given as SMILES.
The mark [1] stands for this setting: in CCCCCCCCC=CCCCCCCCC(=O)OCC(COC(=O)CCCCCCCC=CCCCCCCCC)OC(=O)CCCCCCCC=CCCCCCCCC

In the case of `Cc1cccc(C)c1`, the “solvation free energy, 298 K” value reads like this: (in CC#N) -5.18 kcal/mol; (in CC(C)CC(C)(C)C) -5.12 kcal/mol; (in CC(O)CO) -4.13 kcal/mol; (in CCCCCCC) -5.39 kcal/mol; (in CCCCCCCCCCCCCCCC) -5.27 kcal/mol; (in CCCCCCCCO) -5.16 kcal/mol. Further, the “solvation free energy, 298 K” value was -6.06 kcal/mol (in CCCCOC(C)=O); -4.82 kcal/mol (in CNC=O); -5.09 kcal/mol (in COCCO); -5.98 kcal/mol (in ClCCCl); -3.29 kcal/mol (in NC=O); -3.85 kcal/mol (in NCCO). Also, the “solvation free energy, 298 K” value (in O) is -0.78 kcal/mol; the “solvation free energy, 298 K” value (in O=CN1CCOCC1) was -5.03 kcal/mol; the “solvation free energy, 298 K” value (in OCCO) is -3.42 kcal/mol; the “solvation free energy, 298 K” value (in OCCOCCO) is -4.26 kcal/mol; the “solvation free energy, 298 K” value (in OCCOCCOCCO) was -4.4 kcal/mol; the “solvation free energy, 298 K” value (in c1ccccc1) was -5.99 kcal/mol.
As for `O=C1CCCO1`, under “in CC(C)CC(C)(C)C”, the “solvation free energy, 298 K” value is -4.99 kcal/mol.
As for `C=O`, the “solvation free energy, 298 K” value (in O) is -2.75 kcal/mol.
Turning to `CCCCCCO[N+](=O)[O-]`, under “in O”, the “solvation free energy, 298 K” value is -1.66 kcal/mol.
Same read-out and setting: next, `COC(CC#N)(OC)OC`: -6.4 kcal/mol.
Regarding `C=CC=C`, the “solvation free energy, 298 K” value is -2.17 kcal/mol (in C1CCC2CCCCC2C1); -2.03 kcal/mol (in C1COCCO1); -2.36 kcal/mol (in C=Cc1ccccc1); -1.97 kcal/mol (in CC1COC(=O)O1); -2.15 kcal/mol (in CC#N); -2.56 kcal/mol (in CC(=O)N(C)C). Besides, the “solvation free energy, 298 K” value runs as follows: (in CC(C)(C)O) -2.07 kcal/mol; (in CC(C)=O) -2.74 kcal/mol; (in CC(C)CCO) -2.09 kcal/mol; (in CC(C)CO) -2.06 kcal/mol; (in CC(C)O) -2.09 kcal/mol; (in CCC(C)(C)O) -2.16 kcal/mol. The “solvation free energy, 298 K” value was -2.06 kcal/mol (in CCC(C)CO); -2.07 kcal/mol (in CCC(C)O); -2.09 kcal/mol (in CCC(O)CC); -2.07 kcal/mol (in CCCC(C)O); -2.67 kcal/mol (in CCCCCCC); -2.1 kcal/mol (in CCCCCCCCCCCCCCCC). Further, the “solvation free energy, 298 K” value (in CCCCCO) was -2.11 kcal/mol; the “solvation free energy, 298 K” value (in CCCCO) was -2.11 kcal/mol; the “solvation free energy, 298 K” value (in CCCO) was -2.16 kcal/mol; the “solvation free energy, 298 K” value (in CCOC(C)=O) was -2.84 kcal/mol; the “solvation free energy, 298 K” value (in CCOCC) is -2.72 kcal/mol; the “solvation free energy, 298 K” value (in CN1CCCC1=O) was -2.36 kcal/mol. Besides, the “solvation free energy, 298 K” value was -2.29 kcal/mol (in CN(C)C=O); -2.46 kcal/mol (in CN(C)P(=O)(N(C)C)N(C)C); -2.14 kcal/mol (in CO); -2.26 kcal/mol (in COC(C)=O); -2.05 kcal/mol (in COCCOCCOCCOC); -1.8 kcal/mol (in CS(C)=O). Besides, the “solvation free energy, 298 K” value runs as follows: (in Cc1ccc(C)cc1) -2.45 kcal/mol; (in Cc1cccc(C)c1) -2.48 kcal/mol; (in Cc1ccccc1C) -2.46 kcal/mol; (in ClCCl) -2.83 kcal/mol; (in Nc1ccccc1) -2.06 kcal/mol; (in O) 0.6 kcal/mol. The “solvation free energy, 298 K” value is, setting by setting: (in OCCCOCCCO) -1.73 kcal/mol; (in OCCO) -1.35 kcal/mol; (in OCc1ccccc1) -1.95 kcal/mol.
Turning to `CC1=CC(=O)CC(C)(C)C1`, the “solvation free energy, 298 K” value (in O) is -5.18 kcal/mol.
For the compound `Cc1ccccc1N`, the “solvation free energy, 298 K” value is, setting by setting: (in CC(C)CC(C)(C)C) -6.37 kcal/mol; (in CCCCCC) -6.13 kcal/mol; (in CCCCCCC) -6.22 kcal/mol; (in CCCCCCCC) -6.34 kcal/mol; (in CCCCCCCCCC) -6.64 kcal/mol; (in Cc1cccc(C)c1) -7.32 kcal/mol. For the same compound, the “solvation free energy, 298 K” value runs as follows: (in Cc1ccccc1C) -7.39 kcal/mol; (in O) -5.55 kcal/mol.
Consider `CCCOC(C)=O`, for which the “solvation free energy, 298 K” value is -4.72 kcal/mol (in CC(=O)N(C)C); -3.84 kcal/mol (in CC(C)CCCC(C)CCCC(C)CCCCC(C)CCCC(C)CCCC(C)C); -4.3 kcal/mol (in CCCCC(CC)COC(=O)CCCCC(=O)OCC(CC)CCCC); -4.03 kcal/mol (in CCCCCC); -4.02 kcal/mol (in CCCCCCC); -4.02 kcal/mol (in CCCCCCCC). The “solvation free energy, 298 K” value was -4.35 kcal/mol under setting [1]; -3.96 kcal/mol (in CCCCCCCCCC); -3.9 kcal/mol (in CCCCCCCCCCCCCCCC); -4.33 kcal/mol (in CCCCCCCCO); -4.31 kcal/mol (in CCCCCO); -4.56 kcal/mol (in CCCCN(C=O)CCCC). In addition, the “solvation free energy, 298 K” value is -4.71 kcal/mol (in CCOCCO); -4.62 kcal/mol (in CN1CCCC1=O); -4.72 kcal/mol (in CN1CCCCC1=O); -4.54 kcal/mol (in CNC(C)=O); -4.82 kcal/mol (in CO); -3.72 kcal/mol (in NC=O). The “solvation free energy, 298 K” value reads like this: (in O) -2.8 kcal/mol; (in O=CN1CCOCC1) -4.42 kcal/mol; (in [2H]O[2H]) -2.84 kcal/mol.
As to `CC(CC(C)(C)C)CC(C)(C)CC(C)(C)C` (stereo unspecified), the “solvation free energy, 298 K” value (in O) was 4.46 kcal/mol.
On the same count and under the same terms, the result for `CCCCCCCNCc1ccc(C)cc1` reads -5.01 kcal/mol; that for `O=COc1ccccc1`, -3.82 kcal/mol.
As for `[H][H]`, the “solvation free energy, 298 K” value (in CCCCCCCCO) was 1.76 kcal/mol and the “solvation free energy, 298 K” value (in O) worked out at 2.35 kcal/mol.
For `CC(C)CO[N+](=O)[O-]`, for the setting “in O”, the “solvation free energy, 298 K” value was -1.88 kcal/mol.
On to `c1ccc2c(c1)Cc1ccccc1-2`, for which the “solvation free energy, 298 K” value by setting is: (in CC(=O)N(C)C) -10.4 kcal/mol; (in CC(C)(C)O) -8.84 kcal/mol; (in CC(C)CC(C)(C)C) -9.32 kcal/mol; (in CC(C)CCO) -8.95 kcal/mol; (in CC(C)CO) -9.21 kcal/mol; (in CC(C)O) -8.92 kcal/mol. The “solvation free energy, 298 K” value is, setting by setting: (in CCC(C)O) -8.95 kcal/mol; (in CCCC(C)O) -9.03 kcal/mol; (in CCCCC(CC)CO) -9.14 kcal/mol; (in CCCCCC) -9.29 kcal/mol; (in CCCCCCC) -9.3 kcal/mol; (in CCCCCCCC) -9.29 kcal/mol. In addition, the “solvation free energy, 298 K” value was -9.74 kcal/mol under setting [1]; -9.32 kcal/mol (in CCCCCCCCCC); -9.33 kcal/mol (in CCCCCCCCCCO); -9.32 kcal/mol (in CCCCCCCCO); -9.33 kcal/mol (in CCCCCCCO); -9.26 kcal/mol (in CCCCCCO). The “solvation free energy, 298 K” value (in CCCCCO) is -9.24 kcal/mol; the “solvation free energy, 298 K” value (in CCCCO) was -9.15 kcal/mol; the “solvation free energy, 298 K” value (in CCCO) is -9.09 kcal/mol; the “solvation free energy, 298 K” value (in CCO) was -8.93 kcal/mol; the “solvation free energy, 298 K” value (in CN1CCCC1=O) was -10.5 kcal/mol; the “solvation free energy, 298 K” value (in CO) is -8.85 kcal/mol. Besides, for the setting “in O”, the “solvation free energy, 298 K” value is -3.34 kcal/mol.
For `CCCCCCCCP(=O)(CCCCCCCC)CCCCCCCC`, under “in O”, the “solvation free energy, 298 K” value is -15.5 kcal/mol.
`CS(C)=O`: the “solvation free energy, 298 K” value runs as follows: (in CCCCCCCCCCCCCCCC) -4.14 kcal/mol; (in CCOC(C)=O) -6.66 kcal/mol.
Consider `CCCC1CCCCC1`, for which the “solvation free energy, 298 K” value by setting is: (in CN1CCCC1=O) -4.57 kcal/mol; (in NC=O) -1.91 kcal/mol; (in O) 1.8 kcal/mol.
Consider `CCCC(=O)CC`, for which the “solvation free energy, 298 K” value (in O) was -3.07 kcal/mol.
As to `CC=CCCC`, the “solvation free energy, 298 K” value is, setting by setting: (in NC=O) -1.06 kcal/mol; (in OCCO) -1.25 kcal/mol; (in OCCOCCO) -1.92 kcal/mol; (in OCCOCCOCCO) -2.02 kcal/mol.
Turning to `CS`, the “solvation free energy, 298 K” value (in O) was -1.18 kcal/mol.
As to `CCCCCCCCO`, the “solvation free energy, 298 K” value (in CC(C)CC(C)(C)C) is -6.52 kcal/mol; the “solvation free energy, 298 K” value (in CCC(C)=O) is -8.2 kcal/mol; the “solvation free energy, 298 K” value (in CCCCCCC) is -6.38 kcal/mol; the “solvation free energy, 298 K” value (in CCCCCCCCCCCCCCCC) is -6.17 kcal/mol; the “solvation free energy, 298 K” value (in CCCCCCCCCO) was -8.45 kcal/mol; the “solvation free energy, 298 K” value (in CCCCCCO) is -8.58 kcal/mol. The “solvation free energy, 298 K” value (in CCCCCl) is -7.22 kcal/mol; the “solvation free energy, 298 K” value (in CO) is -8.03 kcal/mol; the “solvation free energy, 298 K” value (in NC=O) was -6.49 kcal/mol; the “solvation free energy, 298 K” value (in O) is -4.07 kcal/mol.
In the case of `Cc1ccc2cc(C)ccc2c1`, the “solvation free energy, 298 K” value was -8.29 kcal/mol under setting [1]; -8.28 kcal/mol (in CCCCCCCO); -8.36 kcal/mol (in CCCCCCO); -8.49 kcal/mol (in CCCCCO); -8.59 kcal/mol (in CCCCO); -8.85 kcal/mol (in CCO). Besides, the “solvation free energy, 298 K” value (in O) was -2.37 kcal/mol.
As to `CCCC(O)CC` (stereo unspecified), the “solvation free energy, 298 K” value (in O) is -4.06 kcal/mol.
As to `O=[N+]([O-])c1ccccc1O`, the “solvation free energy, 298 K” value (in CC(C)CC(C)(C)C) was -6.5 kcal/mol; the “solvation free energy, 298 K” value (in CCCCCC) is -6.48 kcal/mol; the “solvation free energy, 298 K” value (in CCCCCCC) is -6.49 kcal/mol; the “solvation free energy, 298 K” value (in CCCCCCCC) was -6.49 kcal/mol; the “solvation free energy, 298 K” value (in CCCCCCCCCC) was -6.47 kcal/mol; the “solvation free energy, 298 K” value (in Cc1cccc(C)c1) is -7.73 kcal/mol. Further, the “solvation free energy, 298 K” value (in O) is -4.58 kcal/mol.
Take `CCc1ccc(C)cc1`: the “solvation free energy, 298 K” value (in O) is -0.95 kcal/mol.
Still for that read-out and setting: the result for `O=C(O)CCc1ccccc1` reads -9 kcal/mol.
